Data reported in patent publication US7306804B2 (priority 1998, dated 2007).
“Also recorded” adds a separate entry of the source. Like-named read-outs stand apart in the source and are kept apart here.

Columns and labels:
[1] = test system: anti-peptide antibodies in serum; format: binding, human; set-up: key to Anti-peptide antibody response: +, Positive (titer above control); −, Negative (titer below control)
[2] = test system: HIV envelope protein gp160; conditions: cited from earlier work
[3] = test system: anti-peptide antibodies in serum; format: binding, chimpanzee; set-up: key: +, Positive (Titer > 1:100); −, Negative (Titer < 1:100)
[4] = test system: peptide-pulsed autologous EBV-transformed B cells (B-LCL); format: cell-based, human
[5] = test system: PBMCs from control and HIV-1 infected chimpanzees; format: cell-based, chimpanzee
[6] = test system: PBMCs from normal and HIV-positive individuals; format: cell-based, human
PBMCs = conditions: three monkeys immunized with peptide cocktail; cited from earlier work

For VYYGVPVWKEA [Peptide 104], the “number of HIV+ individuals with positive antibody titers (<1:1280)” value [1] was “three”, the Anti-peptide antibody response ([1]; HIV-positive patient MSf) was “−” and the Anti-peptide antibody response ([1]; HIV-positive patient MSm) was “−”. For the same sequence, the Anti-peptide antibody response ([1]; HIV-positive patient eight) was “−”, the Anti-peptide antibody response ([1]; HIV-positive patient eleven) was “−” and the Anti-peptide antibody response ([1]; HIV-positive patient fifteen) was “−”. The Anti-peptide antibody response ([1]; HIV-positive patient five) was “−”, the Anti-peptide antibody response ([1]; HIV-positive patient four) was “+” and the Anti-peptide antibody response ([1]; HIV-positive patient fourteen) was “−”. For the same sequence, the Anti-peptide antibody response ([1]; HIV-positive patient nine) was “−”, the Anti-peptide antibody response ([1]; HIV-positive patient one) was “−” and the Anti-peptide antibody response ([1]; HIV-positive patient seven) was “−”. For the same sequence, the Anti-peptide antibody response ([1]; HIV-positive patient six) was “+”, the Anti-peptide antibody response ([1]; HIV-positive patient ten) was “−” and the Anti-peptide antibody response ([1]; HIV-positive patient thirteen) was “−”. The Anti-peptide antibody response ([1]; HIV-positive patient three) was “−”, the Anti-peptide antibody response ([1]; HIV-positive patient twelve) was “−” and the Anti-peptide antibody response ([1]; HIV-positive patient two) was “+”. The Anti-peptide antibody response ([1]; Normal-1 (HIV-seronegative)) was “−”, the Anti-peptide antibody response ([1]; Normal-2 (HIV-seronegative)) was “−” and the “T-cell proliferative response to immunizing peptide and HIV Env protein gp160” value ([2]; immunized mice) was “induced a T-cell response against both the immunizing peptide and the HIV Env protein; also recorded: induced proliferative responses to both the immunizing peptide”. The “antibodies recognizing recombinant gp160” value ([2]; immunized mice) was “did not produce antibodies that could recognize recombinant gp160”, the T-cell proliferation responses ([2]; two F1 hybrid mouse strains (B6C3 F1 and A.SW×Balb/c F1)) was “relatively good T-cell proliferation responses” and the Anti-peptide antibody response [3] was “−”. For the same sequence, the Anti-peptide antibody response ([3]; chimpanzee 40, control normal) was “−”, the Anti-peptide antibody response ([3]; chimpanzee 73, control normal) was “−” and the “% Specific lysis at various E:T ratios 12.5:1” value ([4]; E:T 12.5:1, PBMCs from patient restimulated 7 days in phytohemagglutinin medium, peptide-pulsed autologous B-LCL) was 1.5%. The “% Specific lysis at various E:T ratios 25:1” value ([4]; E:T 25:1, PBMCs from patient restimulated 7 days in phytohemagglutinin medium, peptide-pulsed autologous B-LCL) was 3.7%, the “% Specific lysis at various E:T ratios 50:1” value ([4]; E:T 50:1, PBMCs from patient restimulated 7 days in phytohemagglutinin medium, peptide-pulsed autologous B-LCL) was 9.3% and the “% Specific lysis at various E:T ratios 100:1” value ([4]; E:T 100:1, PBMCs from patient restimulated 7 days in phytohemagglutinin medium, peptide-pulsed autologous B-LCL) was 12.2%. The “CTL activity against peptide-pulsed autologous B-LCLs” value ([4]; PBMCs from LTNP HD restimulated 7 days with PHA) was “significant CTL activity”, the “specific lysis of peptide-pulsed target cells” value ([4]; […], compared with restimulated PBMCs) was “also observed” and the T-cell proliferative response ([5]; chimpanzee 40, control normal) was “− (−, Negative (SI < 2.0))”. The T-cell proliferative response ([5]; chimpanzee 62, HIV-infected) was “+ (+, Positive (Stimulation Index [SI] > 2.0))”, the T-cell proliferative response ([5]; chimpanzee 69, HIV-infected) was “+ (+, Positive (Stimulation Index [SI] > 2.0))” and the T-cell proliferative response ([5]; chimpanzee 73, control normal) was “− (−, Negative (SI < 2.0))”. The T-cell proliferative response ([5]; chimpanzee 80, HIV-infected) was “+ (+, Positive (Stimulation Index [SI] > 2.0))”, the T-cell proliferative response ([5]; chimpanzee 99, HIV-infected) was “+ (+, Positive (Stimulation Index [SI] > 2.0))” and the T-cell proliferative response ([5]; chimpanzee 100, HIV-infected) was “− (−, Negative (SI < 2.0))”. For the same sequence, the T-cell proliferative response ([5]; chimpanzee 139, HIV-infected) was “+ (+, Positive (Stimulation Index [SI] > 2.0))”, the T-cell proliferative response ([5]; chimpanzee 175, HIV-infected) was “+ (+, Positive (Stimulation Index [SI] > 2.0))” and the T-cell proliferative response ([5]; chimpanzee 247, HIV-infected) was “− (−, Negative (SI < 2.0))”. The T-cell proliferative response ([5]; chimpanzee 310, HIV-infected) was “+ (+, Positive (Stimulation Index [SI] > 2.0))”, the SI values ([5]; in three HIV-infected chimpanzees) was “above 5.1” and the “number of HIV-infected chimpanzees with positive proliferative responses (SI>2.0)” value ([5]; nine HIV-infected chimpanzees tested) was “seven of the nine”. For the same sequence, the “number of HIV+ individuals with positive proliferative responses” value ([6]; 17 HIV+ individuals tested) was “eight of the 17”, the T-cell proliferative response ([6]; HIV-positive patient MSf) was “− (−, Negative (SI < 2.0))” and the T-cell proliferative response ([6]; HIV-positive patient MSm) was “− (−, Negative (SI < 2.0))”. For the same sequence, the T-cell proliferative response ([6]; HIV-positive patient eight) was “− (−, Negative (SI < 2.0))”, the T-cell proliferative response ([6]; HIV-positive patient eleven) was “+ (+, Positive (Stimulation Index [SI] > 2.0))” and the T-cell proliferative response ([6]; HIV-positive patient fifteen) was “+ (+, Positive (Stimulation Index [SI] > 2.0))”. The T-cell proliferative response ([6]; HIV-positive patient five) was “− (−, Negative (SI < 2.0))”, the T-cell proliferative response ([6]; HIV-positive patient four) was “− (−, Negative (SI < 2.0))” and the T-cell proliferative response ([6]; HIV-positive patient fourteen) was “− (−, Negative (SI < 2.0))”. The T-cell proliferative response ([6]; HIV-positive patient nine) was “+ (+, Positive (Stimulation Index [SI] > 2.0))”, the T-cell proliferative response ([6]; HIV-positive patient one) was “− (−, Negative (SI < 2.0))” and the T-cell proliferative response ([6]; HIV-positive patient seven) was “− (−, Negative (SI < 2.0))”. For the same sequence, the T-cell proliferative response ([6]; HIV-positive patient six) was “+ (+, Positive (Stimulation Index [SI] > 2.0))”, the T-cell proliferative response ([6]; HIV-positive patient ten) was “− (−, Negative (SI < 2.0))” and the T-cell proliferative response ([6]; HIV-positive patient thirteen) was “+ (+, Positive (Stimulation Index [SI] > 2.0))”. The T-cell proliferative response ([6]; HIV-positive patient three) was “+ (+, Positive (Stimulation Index [SI] > 2.0))”, the T-cell proliferative response ([6]; HIV-positive patient twelve) was “+ (+, Positive (Stimulation Index [SI] > 2.0))” and the T-cell proliferative response ([6]; HIV-positive patient two) was “+ (+, Positive (Stimulation Index [SI] > 2.0))”. For the same sequence, the T-cell proliferative response ([6]; Normal-1 (HIV-seronegative)) was “− (−, Negative (SI < 2.0))”, the T-cell proliferative response ([6]; Normal-2 (HIV-seronegative)) was “− (−, Negative (SI < 2.0))” and the SI values ([6]; in six of the eight responding HIV+ individuals) was “above 4.1”. The “proliferative response of PBMCs” value (PBMCs) was “good response”.
